{
  "source": "paper PMC6728138",
  "about": "“Quantitative mapping of protein-peptide affinity landscapes using spectrally encoded beads” (eLife, 2019)",
  "key": {"CN": {"test_system": "CN", "details": "ref Fruman et al., 1992; cited from earlier work", "text": "Consistent with MRBLE-pep measurements, ..."}, "[1]": {"test_system": "NFAT-driven luciferase activity in HEK293T cells", "experiment": "In vivo calcineurin activity assay (NFAT dual luciferase reporter)", "assay_type": "cell-based", "details": "initial in vivo experiment, FK506 1 μM", "text": "To test the degree to which in vitro MRBLE-pep affinities predict in vivo inhibition, we used a previously developed dual luciferase reporter assay to assess the activity of the NFAT2 transcription factor in HEK293T cells (Figure 6A) ([Grigoriu et al., 2013]). NFAT2 must be dephosphorylated by CN to accumulate in the nucleus, where it activates transcription of its target genes, and this interaction can be inhibited by peptides or small molecules that binds to CN. Reduction of NFAT2-dependent transcriptional activity upon expression of a competing PxIxIT peptide therefore reflects, quantitatively, the affinity of the inhibitor peptide for CN. Candidate PxIxIT inhibitors were co-expressed as GFP-fusion proteins within cells to enhance their stability and facilitate direct measurement of inhibitor concentrations.\nPxIxIT peptides were fused to eGFP in pEGFPc1 vector. HEK293T cells were transfected with pEGFPc1 clones, pNFAT-Luc and CMV-Renilla in a 6-well plate format. 18 hr post transfection, 1μM FK506 or DMSO (vehicle) was added to the media as needed. […] 6 hr after pathway activation, cells were collected, washed in PBS and re-suspended in DMEM media. 80% of the cells were used to measure luciferase activity and renilla using the Dual-Glo assay system (Promega) with three technical replicates. The remaining cells were frozen and stored at −80°C. Cell lysates were prepared in RIPA buffer. 15–20 μg of lysate was analyzed by Western for expression of GFP. GFP signal was normalized to either actin or tubulin. Luciferase activity (normalized to renilla expression) was further normalized to eGFP expression. Data represent at least three experimental replicates."}, "calcineurin (CN)": {"target": "T1, calcineurin (CN) (Homo sapiens, UniProt Q08209)", "T1 construct": "human calcineurin A isoforms (truncated at residue 400); made in house; host or cells: E. coli BL21 (DE3)", "T1 sequence (Q08209 1-400 limits assumed)": "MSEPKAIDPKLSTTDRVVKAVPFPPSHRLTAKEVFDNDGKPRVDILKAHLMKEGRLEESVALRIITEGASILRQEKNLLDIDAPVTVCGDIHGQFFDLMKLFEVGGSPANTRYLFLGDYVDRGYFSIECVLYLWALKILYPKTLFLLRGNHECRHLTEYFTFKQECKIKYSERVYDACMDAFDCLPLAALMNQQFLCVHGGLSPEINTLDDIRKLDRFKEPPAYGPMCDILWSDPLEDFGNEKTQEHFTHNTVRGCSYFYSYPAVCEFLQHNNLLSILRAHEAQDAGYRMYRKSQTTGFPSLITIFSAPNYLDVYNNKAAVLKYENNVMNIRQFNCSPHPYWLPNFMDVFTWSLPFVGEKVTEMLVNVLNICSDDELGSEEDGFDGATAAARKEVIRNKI", "T1 sequence (P63098 whole entry partner, the tested form may be a part, canonical isoform)": "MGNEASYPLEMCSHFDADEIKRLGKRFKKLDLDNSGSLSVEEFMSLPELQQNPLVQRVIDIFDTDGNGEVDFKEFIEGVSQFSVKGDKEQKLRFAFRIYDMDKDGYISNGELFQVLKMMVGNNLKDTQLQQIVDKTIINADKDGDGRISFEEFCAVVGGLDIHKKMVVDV", "experiment": "MRBLE-pep calcineurin binding assay (concentration-dependent)", "method": "MRBLEs were prepared by transferring a 20 μL aliquot from a 600 μL suspension (∼3000–8000 beads depending on pellet size) to a 100 μL PCR strip (20 μL for each CN concentration), exchanging buffer via 3 cycles of iterative pelleting, decanting, and resuspension with 0.1% PBST containing 5% BSA, pH = 7.5 (100 μL), and then left mixing at ∼5 °C on a rotator in the same wash buffer overnight (∼14 hr). MRBLEs were then buffer exchanged once again with CN binding buffer (50 mM Tris pH = 7.5, 150 mM NaCl, 0.1% TWEEN 20) via three iterative cycles of pelleting, decanting, and resuspension.\nAfter incubation, MRBLEs were pelleted, decanted, and washed once with 0.1% PBST (100 μL). After a final round of pelleting and decanting, 20 μL of 0.1% PBST was added and the beads were transferred to a quartz microscope slide for imaging.\nThe affinity ( Kd ) for each peptide in a MBRLE library was determined via a two-step nonlinear regression using a single-site binding model:(1) Ii=(Imax[CNtotal])/(Kd,i+[CNtotal]) where Ii is the median measured fluorescence intensity for each peptide, Kd,i is the dissociation constant for that interaction, [ CNtotal ] is total CN concentration, and Imax is a global variable representing the fluorescence intensity once MRBLE-pep beads are saturated. First, we determined the global saturation value ( Imax ), by globally fitting the top 80% highest-intensity MRBLE codes. Next, we globally fit the entire data set using this Imax value to yield an estimated absolute affinity ( Kd ) for all peptides in the library. […] Differences in binding affinity were calculated relative to a reference peptide using the standard equation:(2) ΔΔG=RTln(Kd,i/Kd,ref)\nNext, we used this reference value and calculated differences in binding affinity ( ΔΔG ) to estimate absolute Kd values for each peptide within the calibration and full calibration libraries (Figure 2—source data 1, Figure 2—source data 2, Figure 5—source data 1, Figure 5—source data 2, Figure 5—source data 3, Figure 5—source data 4)."}},
  "note": "Where two headings read alike, the source gives them in different places. Ends that are not written are not given here.",
  "data": [
    {"compound": "C=CC[C@@H]1/C=C(\\C)C[C@H](C)C[C@H](OC)[C@H]2O[C@@](O)(C(=O)C(=O)N3CCCC[C@H]3C(=O)O[C@H](/C(C)=C/[C@@H]3CC[C@@H](O)[C@H](OC)C3)[C@H](C)[C@@H](O)CC1=O)[C@H](C)C[C@@H]2OC", "note": "[FK506]", "values": [
      {"measurement": "IC50", "setting": "CN", "value": "~0.5", "unit": "nM"},
      {"measurement": "NFAT-driven luciferase activity, normalized to renilla and eGFP expression, relative to empty vector (Data)", "setting": "[1]; replicate 1", "value": 0.09},
      {"measurement": "NFAT-driven luciferase activity, normalized, relative to empty vector (Data)", "setting": "[1]; replicate 2", "value": 0.08616},
      {"measurement": "NFAT-driven luciferase activity, normalized, relative to empty vector (Data)", "setting": "[1]; replicate 3", "value": 0.09188}
    ]},
    {"compound": "HAVIVITGPH-NH2", "values": [
      {"measurement": "Kd", "setting": "calcineurin (CN); bold value over the codes, read-out: kd, 'Triplicate high' library", "value": "1270 ± 130", "unit": "nM"}
    ]},
    {"compound": "HPSIVITGPH-NH2", "values": [
      {"measurement": "Kd", "setting": "calcineurin (CN); kd, 'Triplicate high' library", "value": "880 ± 260", "unit": "nM"}
    ]},
    {"compound": "HPVIVVTGPH-NH2", "values": [
      {"measurement": "Kd", "setting": "calcineurin (CN); apparent Kd, 'Triplicate low' (Figure 2C, measure not given)", "value": "2000 ± 400", "unit": "nM"},
      {"measurement": "Kd", "setting": "calcineurin (CN); kd, 'Triplicate high' library", "value": "920 ± 250", "unit": "nM"}
    ]}
  ]
}
